# What was measured:
# Mushroom tyrosinase = Mushroom tyrosinase inhibition capability analysis; assay type: biochemical; settings: positive control, 100 μM
# Experimental: In a 96 well plate, 70 μl PBS, 20 μl specimen solution having different concentrations is added into each pore, and the mixture is uniformly mixed. Next, 10 μl 12U tyrosinase is added to place the plate in the cultivation chest at 37 degrees Celsius to react for thirty minutes. 10 μl 15 mM L-dopa is further added, and after continuously placing the plate in the cultivation chest to react for thirty minutes, the variance of absorbance is measured at 492 nm wavelengths. By taking H2O or 50% EtOH as the control group, the anti-oxidation rate of the object to be tested is obtained by inhibition of tyrosinase % (IT %) as the following formula. When peroxidation rate of lipid inhibition is higher, antioxidative function is stronger. Inhibition of tyrosinase %, IT %=[1−(absorbance of sample at 492 nm)/(absorbance of the control group that is not added with samples at 492 nm)]×100.
# [1] = test system: zebra fishes (AB strain Danio rerio); experiment: Whitening activity analysis in vivo (zebra fish melanin); settings: 20 mM; immersed forty-eight hours
# Description: The test uses zebra fishes (AB strain Danio rerio), in which fish edge is above four months, as test brood fishes, and the fishes are bred in an acrylic water tank having a filter and a circulation system. Water temperature is controlled at 28.5 degrees Celsius, and light-dark cycle is respectively controlled at fourteen and ten hours.
# The medicine to be tested must be dissolved in 100% DMSO solution, and finally concentration must also concern DMSO and medicine concentration.
# Embryos that have been fertilized for nine hours is taken and injected into a 96 well culture dish, and three embryos and 100 μl Hank's buffer are disposed in each well. 100 μl taken from the prepared medicine is injected into each well, and after adequately and uniformly mixing the mixture, an orifice plate is covered to avoid draining water content away to change the concentration. […]
# Obtained fish images are opened by image processing software (Image J 1.43 g; National Institute of Health, Bethesda, Md., U.S.A.), and under ranges where the minimum threshold is set at 0, and where the maximum threshold is set at 85, melanin of each group of zebra fishes is performed with quantitative analysis.
SMILES,Mushroom tyrosinase inhibition capability (Mushroom tyrosinase) [%],melanin content of zebra fishes [1] [%]
O=C1O[C@H]([C@@H](O)CO)C(O)=C1O [vitamin C],38.0 ± 0.4,–
OC[C@H]1O[C@@H](Oc2ccc(O)cc2)[C@H](O)[C@@H](O)[C@@H]1O [arbutin],–,50

# Source: US20140294745A1, “CORAL EXTRACT FOR SKIN WHITENING, MOISTURE RETENTION, ELASTICITY IMPROVEMENT, ANTI-INFLAMMATION AND OCCLUSION OF WOUNDS AND EXTRACTING METHOD THEREOF” (UNI-PRESIDENT BIOTECH CO., LTD., priority 2013, published 2014)
